The values that follow come from patent US11166959B2, “Isofuranone compounds useful as HPK1 inhibitors” (BRISTOL-MYERS SQUIBB COMPANY, priority 2017, dated 2021).

Test [1] has as its target T1, HPK1 (Homo sapiens, UniProt Q92918).
T1 construct: purchased SignalChem M23-11G
T1 sequence (Q92918 1-346 limits assumed): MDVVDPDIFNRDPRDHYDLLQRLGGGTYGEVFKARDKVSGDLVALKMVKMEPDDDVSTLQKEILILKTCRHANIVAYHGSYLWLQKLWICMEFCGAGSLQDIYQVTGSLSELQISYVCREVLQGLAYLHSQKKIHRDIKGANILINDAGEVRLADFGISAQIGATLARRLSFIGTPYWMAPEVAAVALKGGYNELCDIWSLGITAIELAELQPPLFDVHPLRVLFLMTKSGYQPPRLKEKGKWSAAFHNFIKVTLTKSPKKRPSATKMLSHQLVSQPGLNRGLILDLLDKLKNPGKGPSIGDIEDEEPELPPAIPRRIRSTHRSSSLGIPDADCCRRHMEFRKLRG
Description: HPK1 Inhibition Assay (kinase reaction, Caliper capillary electrophoresis). Type of test: biochemical. To be noted: for IRAK4/HPK1 Ratio: ratio of the IRAK4 IC50 value to the HPK1 IC50 value. As to the method:
The reactions were incubated out for three hours and quenched with 1 mM EDTA solution. The reaction incubation time and enzyme concentration were optimized to obtain a maximum peptide substrate conversion of 20-30%. The reaction mixtures were analyzed by capillary electrophoresis on a Caliper LabChip EZ Reader to resolve phosphorylated and unphosphorylated peptide species and determine peptide substrate conversion. […] The compounds were dissolved in DMSO and evaluated at 11 concentrations to determine the IC50 values.

In test [2] the target is T2, IRAK4 (Homo sapiens, UniProt Q9NWZ3).
T2 construct: 1 nM IRAK4 (160-460); purchased SignalChem M24016
T2 sequence (Q9NWZ3 160-460): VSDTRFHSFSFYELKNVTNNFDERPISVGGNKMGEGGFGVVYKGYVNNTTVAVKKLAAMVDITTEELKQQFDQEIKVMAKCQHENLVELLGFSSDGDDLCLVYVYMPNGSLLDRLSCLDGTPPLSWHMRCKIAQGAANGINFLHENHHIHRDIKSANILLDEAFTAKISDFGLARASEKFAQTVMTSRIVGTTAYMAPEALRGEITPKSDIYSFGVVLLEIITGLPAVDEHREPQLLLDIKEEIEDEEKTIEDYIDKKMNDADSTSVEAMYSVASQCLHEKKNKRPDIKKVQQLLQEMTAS
As to the kind of experiment: IRAK4 Inhibition Assay (kinase reaction, Caliper capillary electrophoresis). Type of test: biochemical. Particulars: 500 μM ATP, 11 concentrations. The protocol:
The reactions were incubated out for three hours and quenched with 1 mM EDTA solution. The reaction incubation time and enzyme concentration were optimized to obtain a maximum peptide substrate conversion of 20-30%. The reaction mixtures were analyzed by capillary electrophoresis on a Caliper LabChip EZ Reader to resolve phosphorylated and unphosphorylated peptide species and determine peptide substrate conversion. […] The compounds were dissolved in DMSO and evaluated at 11 concentrations to determine IC50 values.

The mark [3] stands for this setting: 0.625 nM HPK1, 22 μM ATP, 11 concentrations, read-out: HPK1 IC50.

Where two headings read alike, the source gives them in different places.

Take `CC(C)(O)C(=O)NNC(=O)c1cnc(Nc2ccc3c(c2)C(C)(C)OC3=O)nc1N[C@H](CO)c1ccccc1` [Example 60, 2-[(3,3-dimethyl-1-oxo-1,3-dihydro-2-benzofuran-5-yl)amino]-4-{[(1S)-2-hydroxy-1-phenylethyl]amino}-N′-(2-hydroxy-2-methylpropanoyl)pyrimidine-5-carbohydrazide]: the half-inhibitory concentration (IC50) (commonly the concentration that gives 50% inhibition) in test [1] (setting [3]) was 0.05 to 0.25 µM; in test [2] it was 0.25 to 1 µM. Further, in test [1], the “IRAK4/HPK1 Ratio” value was “B (B=10 to 50)”.
As for `CC1(C)OC(=O)c2ccc(Nc3cc(N[C@H](CO)c4ccc(F)cc4)c(-c4nc(C56CCN(CC5)CC6)no4)cn3)nc21` [Example 82, 2-{[5-(3-{1-azabicyclo[2.2.2]octan-4-yl}-1,2,4-oxadiazol-5-yl)-4-{1[(1S)-1-(4-fluorophenyl)-2-hydroxyethyl]amino}pyridin-2-yl]amino}-7,7-dimethyl-5H,7H-furo [3,4-b]pyridin-5-one], in test [1], the half-inhibitory concentration (IC50) was less than 0.05 µM and the “IRAK4/HPK1 Ratio” value was “C (C=>50)”. The IC50 in test [2] lay in the range of 0.05 to 0.25 µM.
On to `C#CCNC(=O)c1cnc(Nc2ccc3c(c2)C(C)(C)OC3=O)nc1N[C@H](CO)c1ccccc1` [Example 21, 2-[(3,3-dimethyl-1-oxo-1,3-dihydro-2-benzofuran-5-yl)amino]-4-{[(1S)-2-hydroxy-1-phenylethyl]amino}-N-(prop-2-yn-1-yl)pyrimidine-5-carboxamide], for which the IC50 in test [1] (setting [3]) is less than 0.05 µM; in test [2] it was 0.25 to 1 µM. Further, the “IRAK4/HPK1 Ratio” value in test [1] is “B (B=10 to 50)”.
On the same counts, the results for `CCOC(=O)c1cnc(Nc2ccc3c(c2)C(C)(C)OC3=O)nc1NCCC(C)(C)N` [Example 76, Ethyl 4-[(3-amino-3-methylbutyl)amino]-2-[(3,3-dimethyl-1-oxo-1,3-dihydro-2-benzofuran-5-yl)amino]pyrimidine-5-carboxylate] are 0.05 to 0.25 µM, 0.25 to 1 µM and “B (B=10 to 50)”.
On the same counts, the results for `CN(C)CCNC(=O)c1cnc(Nc2ccc3c(c2)C(C)(C)OC3=O)nc1N[C@H](CO)c1ccccc1` [Example 9, 2-[(3,3-dimethyl-1-oxo-1,3-dihydro-2-benzofuran-5-yl)amino]-N-[2-(dimethylamino)ethyl]-4-{[(1S)-2-hydroxy-1-phenylethyl]amino}pyrimidine-5-carboxamide] are less than 0.05 µM, 0.25 to 1 µM and “B (B=10 to 50)”.
The corresponding values for `CC1(C)OC(=O)c2ccc(Nc3ncc(C(=O)NNC(=O)c4cnccn4)c(N[C@H](CO)c4ccccc4)n3)cc21` [Example 58, N′-{2-[(3,3-dimethyl-1-oxo-1,3-dihydro-2-benzofuran-5-yl)amino]-4-{[(1S)-2-hydroxy-1-phenylethyl]amino}pyrimidine-5-carbonyl} pyrazine-2-carbohydrazide] are less than 0.05 µM, 0.25 to 1 µM and “B (B=10 to 50)”.
On to `CC1(C)OC(=O)c2ccc(Nc3ncc(C(=O)NNC(=O)c4cccnc4)c(N[C@H](CO)c4ccccc4)n3)cc21` [Example 56, N′-{2-[(3,3-dimethyl-1-oxo-1,3-dihydro-2-benzofuran-5-yl)amino]-4-{[(1S)-2-hydroxy-1-phenylethyl]amino}pyrimidine-5-carbonyl}pyridine-3-carbohydrazide], for which the IC50 in test [1] (setting [3]) is less than 0.05 µM; in test [2], 0.25 to 1 µM. The “IRAK4/HPK1 Ratio” value in test [1] was “B (B=10 to 50)”.
For the compound `CN(C)C12CC(c3noc(-c4cnc(Nc5ccc6c(c5)C(C)(C)OC6=O)nc4N[C@H](CO)c4ccccc4)n3)(C1)C2` [Example 48, 5-[(5-{3-[3-(dimethylamino)bicyclo[1.1.1]pentan-1-yl]-1,2,4-oxadiazol-5-yl}-4-{[(1S)-2-hydroxy-1-phenylethyl]amino}pyrimidin-2-yl)amino]-3,3-dimethyl-1,3-dihydro-2-benzofuran-1-one], the IC50 in test [1] (setting [3]) was less than 0.05 µM; in test [2] it was 0.25 to 1 µM. In test [1], the “IRAK4/HPK1 Ratio” value is “C (C=>50)”.
On the same counts, the results for `CC1(C)OC(=O)c2ccc(Nc3ncc(-c4nnc(C5(C(F)(F)F)CC5)o4)c(N[C@H](CO)c4ccccc4)n3)cc21` [Example 68, 5-[(4-{[(1S)-2-hydroxy-1-phenylethyl]amino}-5-{5-[1-(trifluoromethyl)cyclopropyl]-1,3,4-oxadiazol-2-yl}pyrimidin-2-yl)amino]-3,3-dimethyl-1,3-dihydro-2-benzofuran-1-one] are less than 0.05 µM, 0.25 to 1 µM and “B (B=10 to 50)”.
The corresponding values for `O=C1OC2(CCCC2)c2nc(Nc3cc(N[C@H](CO)c4ccccc4)c(-c4nc(C5CC5)no4)cn3)ccc21` [Example 87, (S)-2′-((5-(3-cyclopropyl-1,2,4-oxadiazol-5-yl)-4-((2-hydroxy-1-phenylethyl)amino)pyridin-2-yl)amino)-5′H-spiro[cyclopentane-1,7′-furo[3,4-b]pyridin]-5′-one] are less than 0.05 µM, 0.05 to 0.25 µM and “B (B=10 to 50)”.
For the compound `CC1(C)OC(=O)c2ccc(Nc3ncc(C(=O)NCc4ccccc4)c(N[C@H](CO)c4ccccc4)n3)cc21` [Example 10, N-benzyl-2-[(3,3-dimethyl-1-oxo-1,3-dihydro-2-benzofuran-5-yl)amino]-4-{[(1S)-2-hydroxy-1-phenylethyl]amino}pyrimidine-5-carboxamide], the IC50 in test [1] (setting [3]) was less than 0.05 µM; in test [2], 0.25 to 1 µM. Further, in test [1], the “IRAK4/HPK1 Ratio” value is listed as “C (C=>50)”.
In the case of `CC1(C)OC(=O)c2ccc(Nc3ncc(-c4nnc(-c5ccccn5)o4)c(N[C@H](CO)c4ccccc4)n3)cc21` [Example 66, 5-[(4-{[(1S)-2-hydroxy-1-phenylethyl]amino}-5-[5-(pyridin-2-yl)-1,3,4-oxadiazol-2-yl]pyrimidin-2-yl)amino]-3,3-dimethyl-1,3-dihydro-2-benzofuran-1-one], the half-maximal inhibitory concentration (IC50) was in the range of 0.05 to 0.25 µM in test [1] (setting [3]) and 0.25 to 1 µM in test [2]. For the same compound, the “IRAK4/HPK1 Ratio” value in test [1] is listed as “B (B=10 to 50)”.
The corresponding values for `CC1(C)OC(=O)c2ccc(Nc3ncc(-c4nc(-c5cccc(F)c5)no4)c(N[C@H](CO)c4ccccc4)n3)cc21` [Example 45, 5-({5-[3-(3-fluorophenyl)-1,2,4-oxadiazol-5-yl]-4-{[(1S)-2-hydroxy-1-phenylethyl]amino}pyrimidin-2-yl}amino)-3,3-dimethyl-1,3-dihydro-2-benzofuran-1-one] are 0.05 to 0.25 µM, 0.25 to 1 µM and “B (B=10 to 50)”.
Turning to `CC1(C)OC(=O)c2ccc(Nc3ncc(-c4nc(CN5CCOCC5)no4)c(N[C@H](CO)c4ccccc4)n3)cc21` [Example 32, 5-[(4-{[(1S)-2-hydroxy-1-phenylethyl]amino}-5-{3-[(morpholin-4-yl)methyl]-1,2,4-oxadiazol-5-yl}pyrimidin-2-yl)amino]-3,3-dimethyl-1,3-dihydro-2-benzofuran-1-one], the IC50 was less than 0.05 µM in test [1] (setting [3]) and 0.25 to 1 µM in test [2]. Also, the “IRAK4/HPK1 Ratio” value in test [1] is recorded as “C (C=>50)”.
The corresponding values for `CC1(C)OC(=O)c2ccc(Nc3ncc(-c4nnc(-c5cccnc5)o4)c(N[C@H](CO)c4ccccc4)n3)cc21` [Example 57, 5-[(4-{[(1S)-2-hydroxy-1-phenylethyl]amino}-5-[5-(pyridin-3-yl)-1,3,4-oxadiazol-2-yl]pyrimidin-2-yl)amino]-3,3-dimethyl-1,3-dihydro-2-benzofuran-1-one] are less than 0.05 µM, 0.25 to 1 µM and “C (C=>50)”.
